Reference: ChEMBL document CHEMBL1201862, “PubChem BioAssay data set” (2004)
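Tested at 5 concentrations; 48 h exposure; 96-well plates; endpoints linearly interpolated, else capped at highest concentration. GI50 is the concentration that inhibits growth by half.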 Activity calls are given as the source filed them. No stated cut-off is given here; in the data, active = GI50 up to about 1.1 µM and inactive = higher.

Columns and labels:
Assay in all cases: NCI anticancer screen, dose series, 48 h
SK-MEL-2 = system: SK-MEL-2
M14 = system: M14
SK-MEL-5 = system: SK-MEL-5
SK-OV-3 = system: SK-OV-3
786-0 = system: 786-0
IGROV-1 = system: IGROV-1
UO-31 = system: UO-31
NCI-H226 = system: NCI-H226
HCC 2998 = system: HCC 2998
HT-29 = system: HT-29
KM12 = system: KM12
NCI-H522 = system: NCI-H522
UACC-257 = system: UACC-257
COLO 205 = system: COLO 205
EKVX = system: EKVX
A549 = system: A549
OVCAR-8 = system: OVCAR-8
SK-MEL-28 = system: SK-MEL-28
CAKI-1 = system: CAKI-1

Measured: GI50

COc1cc2cc(OC(C)=O)c3cc4c(cc3c2c(OC)c1OC)OCO4
inactive: SK-MEL-2 > 100 µM | M14 > 100 µM | SK-MEL-5 > 100 µM | SK-OV-3 > 100 µM | 786-0 > 100 µM | IGROV-1 > 100 µM | UO-31 > 100 µM | NCI-H226 > 100 µM | HCC 2998 > 100 µM | HT-29 > 100 µM | KM12 > 100 µM | NCI-H522 > 100 µM | UACC-257 > 100 µM | COLO 205 > 100 µM | EKVX > 100 µM | A549 > 100 µM | OVCAR-8 > 100 µM | SK-MEL-28 > 100 µM

O=C1C=CC(CC(=O)c2ccc3ccccc3c2)O1 (stereo not given)
inactive: SK-MEL-2 23.8 µM | M14 32.2 µM | SK-MEL-5 59.3 µM | SK-OV-3 68.1 µM | 786-0 21.6 µM | IGROV-1 29.2 µM | UO-31 24.3 µM | HCC 2998 17.2 µM | HT-29 19.1 µM | KM12 17.5 µM | UACC-257 47.6 µM | COLO 205 18 µM | EKVX > 100 µM | CAKI-1 62.1 µM | A549 61.9 µM | OVCAR-8 18.4 µM | SK-MEL-28 55.8 µM

CC1(C=O)C(=O)CCC2(C)C3CC(=O)OC3CCC12 (stereo not given)
inactive: SK-MEL-2 > 100 µM | M14 > 100 µM | SK-MEL-5 > 100 µM | SK-OV-3 > 100 µM | 786-0 > 100 µM | IGROV-1 > 100 µM | UO-31 > 100 µM | HCC 2998 > 100 µM | HT-29 > 100 µM | KM12 > 100 µM | NCI-H522 > 100 µM | UACC-257 > 100 µM | COLO 205 > 100 µM | EKVX > 100 µM | CAKI-1 > 100 µM | A549 > 100 µM | OVCAR-8 > 100 µM | SK-MEL-28 > 100 µM

CCC(=O)N1C(=S)SC[C@H]1C(=O)OC
inactive: M14 > 100 µM | SK-MEL-5 > 100 µM | SK-OV-3 > 100 µM | 786-0 > 100 µM | IGROV-1 > 100 µM | UO-31 > 100 µM | NCI-H226 > 100 µM | HCC 2998 > 100 µM | HT-29 > 100 µM | KM12 > 100 µM | NCI-H522 > 100 µM | UACC-257 > 100 µM | COLO 205 > 100 µM | EKVX > 100 µM | CAKI-1 > 100 µM | A549 > 100 µM | OVCAR-8 > 100 µM | SK-MEL-28 > 100 µM

COC(=O)C1C(=O)CC2CCCCC21 (stereo not given)
inactive: SK-MEL-2 > 100 µM | M14 > 100 µM | SK-MEL-5 > 100 µM | SK-OV-3 > 100 µM | 786-0 > 100 µM | IGROV-1 > 100 µM | UO-31 > 100 µM | NCI-H226 > 100 µM | HCC 2998 > 100 µM | KM12 > 100 µM | NCI-H522 > 100 µM | UACC-257 > 100 µM | COLO 205 > 100 µM | CAKI-1 > 100 µM | A549 > 100 µM | SK-MEL-28 > 100 µM

CN(/N=C/c1cccc2cccnc12)c1c([N+](=O)[O-])cc([N+](=O)[O-])cc1[N+](=O)[O-]
inactive: SK-MEL-2 > 100 µM | M14 > 100 µM | SK-MEL-5 64.9 µM | SK-OV-3 > 100 µM | 786-0 > 100 µM | IGROV-1 > 100 µM | NCI-H226 > 100 µM | HCC 2998 > 100 µM | HT-29 69.2 µM | KM12 25.2 µM | UACC-257 > 100 µM | COLO 205 > 100 µM | EKVX > 100 µM | CAKI-1 > 100 µM | A549 46.8 µM | OVCAR-8 > 100 µM | SK-MEL-28 > 100 µM

CC(NC(=O)OC(C)(C)C)C(=O)NC1CCCC1 (stereo not given)
inactive: M14 > 100 µM | SK-MEL-5 > 100 µM | SK-OV-3 > 100 µM | 786-0 > 100 µM | IGROV-1 > 100 µM | UO-31 > 100 µM | NCI-H226 > 100 µM | HCC 2998 > 100 µM | HT-29 > 100 µM | KM12 > 100 µM | NCI-H522 > 100 µM | UACC-257 > 100 µM | COLO 205 > 100 µM | EKVX > 100 µM | CAKI-1 > 100 µM | A549 > 100 µM | OVCAR-8 > 100 µM | SK-MEL-28 > 100 µM

CCOC(=O)N1C(=S)C(C(=O)OC)(C(=O)OC)N=C1C
inactive: SK-MEL-2 > 100 µM | M14 > 100 µM | SK-MEL-5 > 100 µM | SK-OV-3 > 100 µM | 786-0 > 100 µM | IGROV-1 > 100 µM | UO-31 > 100 µM | NCI-H226 > 100 µM | HCC 2998 > 100 µM | KM12 > 100 µM | UACC-257 > 100 µM | COLO 205 > 100 µM | EKVX > 100 µM | CAKI-1 > 100 µM | A549 > 100 µM | OVCAR-8 > 100 µM | SK-MEL-28 > 100 µM

CC1=N/C(=C\c2ccc(N)cc2)C(=O)N1Nc1nnc(NN2C(=O)/C(=C/c3ccc(N)cc3)N=C2C)c2ccccc12
inactive: M14 > 100 µM | SK-MEL-5 45.2 µM | 786-0 32.5 µM | IGROV-1 85.9 µM | NCI-H226 14.3 µM | HT-29 > 100 µM | KM12 37.6 µM | NCI-H522 21.3 µM | UACC-257 > 100 µM | COLO 205 83.6 µM | EKVX > 100 µM | A549 > 100 µM | OVCAR-8 > 100 µM | SK-MEL-28 > 100 µM

N=C(N)SCc1cn2ccccc2n1
inactive: SK-MEL-2 > 100 µM | M14 > 100 µM | SK-MEL-5 > 100 µM | 786-0 > 100 µM | UO-31 > 100 µM | NCI-H226 > 100 µM | HCC 2998 > 100 µM | HT-29 > 100 µM | KM12 > 100 µM | NCI-H522 > 100 µM | UACC-257 > 100 µM | COLO 205 > 100 µM | EKVX > 100 µM | CAKI-1 > 100 µM | A549 > 100 µM | OVCAR-8 > 100 µM | SK-MEL-28 > 100 µM

COc1ccc2cc1Oc1ccc(cc1)CC1c3cc(c(OC)cc3CCN1C)Oc1c3c(cc4c1C(C2)N(C)CC4)OCO3 (stereo not given)
inactive: SK-MEL-2 5.2 µM | M14 1.87 µM | SK-MEL-5 12.3 µM | 786-0 11.5 µM | IGROV-1 15.1 µM | NCI-H226 2.35 µM | HCC 2998 11.5 µM | HT-29 2.46 µM | KM12 12.9 µM | NCI-H522 7.16 µM | COLO 205 3.89 µM | EKVX 14.9 µM | A549 16 µM | OVCAR-8 8.36 µM | SK-MEL-28 3.29 µM

O=C1c2cccc3c(Cl)ccc(c23)C(=O)N1CCCN1CCN(CCCN2C(=O)c3cccc4c(Cl)ccc(c34)C2=O)CC1
inactive: SK-MEL-2 > 100 µM | M14 > 100 µM | SK-MEL-5 > 100 µM | SK-OV-3 > 100 µM | 786-0 64.4 µM | IGROV-1 > 100 µM | UO-31 > 100 µM | NCI-H226 > 100 µM | HCC 2998 53.3 µM | HT-29 > 100 µM | KM12 > 100 µM | UACC-257 > 100 µM | COLO 205 > 100 µM | EKVX > 100 µM | CAKI-1 > 100 µM | A549 > 100 µM | OVCAR-8 50.9 µM

O=C1/C(=C/c2ccc(Br)cc2)CCC/C1=C\c1ccc(Br)cc1
inactive: SK-MEL-2 20.9 µM | M14 3.03 µM | SK-MEL-5 13.9 µM | SK-OV-3 56.8 µM | 786-0 11.9 µM | IGROV-1 15.3 µM | UO-31 12.3 µM | HCC 2998 2.31 µM | HT-29 1.88 µM | KM12 3.4 µM | NCI-H522 13.6 µM | UACC-257 4.2 µM | COLO 205 12.7 µM | EKVX 24.2 µM | CAKI-1 29.2 µM | A549 12.4 µM | OVCAR-8 3.95 µM | SK-MEL-28 2.12 µM

COc1c(C)c(O)c2c(=O)cc(-c3ccccc3)oc2c1C
inactive: SK-MEL-2 > 100 µM | M14 > 100 µM | SK-MEL-5 > 100 µM | SK-OV-3 > 100 µM | 786-0 > 100 µM | IGROV-1 > 100 µM | UO-31 > 100 µM | NCI-H226 > 100 µM | HCC 2998 > 100 µM | HT-29 > 100 µM | KM12 > 100 µM | NCI-H522 > 100 µM | UACC-257 > 100 µM | EKVX > 100 µM | CAKI-1 > 100 µM | A549 > 100 µM | OVCAR-8 > 100 µM | SK-MEL-28 > 100 µM

O=C1c2cccc(O)c2C(=O)c2c(O)cc(CO)cc21 [ALOE-EMODIN]
inactive: SK-MEL-2 91.8 µM | M14 38.4 µM | SK-MEL-5 15.8 µM | SK-OV-3 > 100 µM | NCI-H226 > 100 µM | HCC 2998 83.9 µM | HT-29 30.9 µM | KM12 40.2 µM | NCI-H522 22.8 µM | UACC-257 49.8 µM | COLO 205 31.7 µM | CAKI-1 49.1 µM | A549 40 µM | SK-MEL-28 > 100 µM

CCC1(c2ccncc2)CCC(=O)NC1=O (stereo not given) [ROGLETIMIDE]
inactive: SK-MEL-2 > 100 µM | M14 > 100 µM | SK-MEL-5 > 100 µM | SK-OV-3 > 100 µM | 786-0 > 100 µM | IGROV-1 > 100 µM | UO-31 > 100 µM | NCI-H226 > 100 µM | HCC 2998 > 100 µM | HT-29 > 100 µM | KM12 > 100 µM | UACC-257 > 100 µM | COLO 205 > 100 µM | EKVX > 100 µM | CAKI-1 > 100 µM | A549 > 100 µM | OVCAR-8 > 100 µM | SK-MEL-28 > 100 µM
